Tests used:
SF-539 = assay: NCI screen, growth of human tumor cells: CNS Cancer SF-539; format: cell-based
Outline: (§1)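 Under the NCI protocol, every compound is profiled with sixty or more data points. Each point ties a cancer type and a molar screening concentration to a percent growth value.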

human cancer cells = assay: NCI screen summary over the cancers tested (negative growth of human cancer cells); format: cell-based; details: cancers with negative growth / cancers tested
Procedure: (§2) In the NCI screening process, each compound was tested and described by a minimum of 60 data points. The test data include, but are not limited to the type of cancer, the molar concentration used in the screen, and the percent growth of the cancer. In some cases, NMR and elemental analysis were used for structural assignment.
The derivatives in the tables are grouped using the same category as in the tables 1-6.

NCI-H226 = assay: NCI screen, growth of human tumor cells: Non-Small Cell Lung NCI-H226; format: cell-based
Procedure: as §2

EKVX = assay: NCI screen, growth of human tumor cells: Non-Small Cell Lung EKVX; format: cell-based; details: EKVX
Procedure: as §2

HOP-18 = assay: NCI screen, growth of human tumor cells: Non-Small Cell Lung HOP-18; format: cell-based
Procedure: as §2

RXF-393 = assay: NCI screen, growth of human tumor cells: Renal Cancer RXF-393; format: cell-based; details: RXF-393 (Renal Cancer), 10^−4 molar
Procedure: as §2

HOP-62 = assay: NCI screen, growth of human tumor cells: Non-Small Cell Lung HOP-62; format: cell-based; details: HOP-62 (Non-Small Cell Lung), 10^−4 molar
Outline: as §1

M14 = assay: NCI screen, growth of human tumor cells: Melanoma M14; format: cell-based; details: M14 (Melanoma), 10^−4 molar
Procedure: as §2

SK-MEL-2 = assay: NCI screen, growth of human tumor cells: Melanoma SK-MEL-2; format: cell-based
Procedure: as §2

KM12 = assay: NCI screen, growth of human tumor cells: Colon Cancer KM12; format: cell-based
Procedure: as §2

RPMI-8226 = assay: NCI screen, growth of human tumor cells: Leukemia RPMI-8226; format: cell-based; details: RPMI-8226 (Leukemia), 10^−4 molar
Procedure: as §2

NCI-H23 = assay: NCI screen, growth of human tumor cells: Non-Small Cell Lung NCI-H23; format: cell-based; details: NCI-H23, 10^−4 molar
Procedure: as §2

HCT-116 = assay: NCI screen, growth of human tumor cells: Colon Cancer HCT-116; format: cell-based; details: HCT-116 (Colon Cancer), 10^−4 molar
Procedure: as §2

UO-31 = assay: NCI screen, growth of human tumor cells: Renal Cancer UO-31; format: cell-based; details: UO-31 (Renal Cancer), 10^−4 molar
Procedure: as §2

ACHN = assay: NCI screen, growth of human tumor cells: Renal Cancer ACHN; format: cell-based; details: ACHN, 10^−4 molar
Outline: as §1

NCI-H460 = assay: NCI screen, growth of human tumor cells: Non-Small Cell Lung NCI-H460; format: cell-based; details: NCI-H460 (Non-Small Cell Lung), 10^−4 molar
Outline: as §1

MCF7/ADR-RES = assay: NCI screen, growth of human tumor cells: Breast Cancer MCF7/ADR-RES; format: cell-based; details: MCF7/ADR-RES (Breast Cancer), 10^−4 molar
Procedure: as §2

K562 = assay: NCI screen, growth of human tumor cells: Leukemia K562; format: cell-based; details: K562 (Leukemia), 10^−4 molar
Outline: as §1

AS49/ATCC = assay: NCI screen, growth of human tumor cells: Non-Small Cell Lung AS49/ATCC; format: cell-based; details: AS49/ATCC (Non-Small Cell Lung), 10^−4 molar
Procedure: as §2

HCT-15 = assay: NCI screen, growth of human tumor cells: Colon Cancer HCT-15; format: cell-based; details: HCT-15 (Colon Cancer), 10^−4 molar
Outline: as §1

BT-549 = assay: NCI screen, growth of human tumor cells: Breast Cancer BT-549; format: cell-based
Procedure: as §2

UACC-62 = assay: NCI screen, growth of human tumor cells: Melanoma UACC-62; format: cell-based; details: UACC-62 (Melanoma), 10^−4 molar
Outline: as §1

HL-60 (TB) = assay: NCI screen, growth of human tumor cells: Leukemia HL-60 (TB); format: cell-based; details: HL-60 (TB) (Leukemia), 10^−4 molar
Procedure: as §2

OVCAR-3 = assay: NCI screen, growth of human tumor cells: Ovarian Cancer OVCAR-3; format: cell-based; details: OVCAR-3 (Ovarian Cancer), 10^−4 molar
Outline: as §1

OVCAR-4 = assay: NCI screen, growth of human tumor cells: Ovarian Cancer OVCAR-4; format: cell-based; details: OVCAR-4 (Ovarian Cancer), 10^−4 molar
Procedure: as §2

HS 578T = assay: NCI screen, growth of human tumor cells: Breast Cancer HS 578T; format: cell-based; details: HS 578T (Breast Cancer), 10^−4 molar
Procedure: as §2

SR = assay: NCI screen, growth of human tumor cells: Leukemia SR; format: cell-based; details: SR (Leukemia), 10^−4 molar
Outline: as §1

COLO205 = assay: NCI screen, growth of human tumor cells: Colon Cancer COLO205; format: cell-based; details: COLO205 (Colon Cancer), 10^−4 molar
Procedure: as §2

SN12C = assay: NCI screen, growth of human tumor cells: Renal Cancer SN12C; format: cell-based; details: SN12C
Procedure: as §2

SK-MEL-5 = assay: NCI screen, growth of human tumor cells: Melanoma SK-MEL-5; format: cell-based
Outline: as §1

DU-145 = assay: NCI screen, growth of human tumor cells: Prostate Cancer DU-145; format: cell-based
Procedure: as §2

SF-268 = assay: NCI screen, growth of human tumor cells: CNS Cancer SF-268; format: cell-based; details: SF-268 (CNS Cancer), 10^−4 molar
Procedure: as §2

U-251 = assay: NCI screen, growth of human tumor cells: CNS Cancer U-251; format: cell-based; details: U-251 (CNS Cancer), 10^−4 molar
Procedure: as §2

SK-MEL-28 = assay: NCI screen, growth of human tumor cells: Melanoma SK-MEL-28; format: cell-based; details: SK-MEL-28 (Melanoma), 10^−4 molar
Procedure: as §2

SNB-75 = assay: NCI screen, growth of human tumor cells: CNS Cancer SNB-75; format: cell-based; details: SNB-75 (CNS Cancer), 10^−4 molar
Procedure: as §2

SF-295 = assay: NCI screen, growth of human tumor cells: CNS Cancer SF-295; format: cell-based; details: SF-295 (CNS Cancer), 10^−4 molar
Procedure: as §2

MDA-MB-435 = assay: NCI screen, growth of human tumor cells: Breast Cancer MDA-MB-435; format: cell-based; details: MDA-MB-435, 10^−4 molar
Procedure: as §2

OVCAR-5 = assay: NCI screen, growth of human tumor cells: Ovarian Cancer OVCAR-5; format: cell-based
Procedure: as §2

O=S1(=O)OCCOS(=O)(=O)C1F [NSC 665942, ethylene fluoromethanedisulfonate]
melting point: 84 to 86 °C | percent of growth of human tumor cells (SF-539; SF-539 (CNS Cancer), 10^−4 molar): 28% | Percentage of cancers showing negative growth cancers tested (human cancer cells; 10^−4 M conc.): 10^−4 M conc. = 0/1 = 0%

O=S1(=O)OCCOS(=O)(=O)C1(Br)Br [NSC 648304, ethylene dibromomethanedisulfonate]
% Growth (NCI-H226; NCI-H226, 10^−4 molar): −1% | % Growth (NCI-H226; NCI-H226, 10^−5 molar): 49% | % Growth (NCI-H226; NCI-H226, 10^−6 molar): 47% | % Growth (NCI-H226; NCI-H226, 10^−7 molar): 54% | % Growth (NCI-H226; NCI-H226, 10^−8 molar): 62% | % Growth (EKVX; 10^−4 molar): 51% | % Growth (EKVX; 10^−5 molar): 57% | % Growth (EKVX; 10^−6 molar): 58% | % Growth (EKVX; 10^−7 molar): 62% | % Growth (EKVX; 10^−8 molar): 58% | melting point: 214 to 220 °C | % Growth (HOP-18; HOP-18, 10^−4 molar): 53% | % Growth (HOP-18; HOP-18, 10^−5 molar): 75% | % Growth (HOP-18; HOP-18, 10^−6 molar): 52% | % Growth (HOP-18; HOP-18, 10^−7 molar): 14% | % Growth (HOP-18; HOP-18, 10^−8 molar): 42% | Percentage of cancers showing negative growth cancers tested (human cancer cells; 10^−4 M conc.): 10^−4 M conc. = 1/3 = 33%

O=S1(=O)OCCOS(=O)(=O)C1Br [NSC 648305, ethylene bromomethanedisulfonate]
% Growth (NCI-H226; NCI-H226, 10^−4 molar): 7% | % Growth (NCI-H226; NCI-H226, 10^−5 molar): 16% | % Growth (NCI-H226; NCI-H226, 10^−6 molar): 20% | % Growth (NCI-H226; NCI-H226, 10^−7 molar): 21% | % Growth (NCI-H226; NCI-H226, 10^−8 molar): 43% | % Growth (EKVX; 10^−4 molar): 51% | % Growth (EKVX; 10^−5 molar): 56% | % Growth (EKVX; 10^−6 molar): 59% | % Growth (EKVX; 10^−7 molar): 60% | % Growth (EKVX; 10^−8 molar): 65% | melting point: 128 to 134 °C | % Growth (HOP-18; HOP-18, 10^−4 molar): −61% | % Growth (HOP-18; HOP-18, 10^−5 molar): 68% | % Growth (HOP-18; HOP-18, 10^−6 molar): 49% | % Growth (HOP-18; HOP-18, 10^−7 molar): 63% | % Growth (HOP-18; HOP-18, 10^−8 molar): 63% | Percentage of cancers showing negative growth cancers tested (human cancer cells; 10^−4 M conc.): 10^−4 M conc. = 1/3 = 33%

CC=CC(=O)C1(C2=C(Cl)C(=O)c3ccccc3C2=O)S(=O)(=O)OCCOS1(=O)=O [NSC 731264, ethylene crotonoyl-[3-chloro-1,4-naptho-2-quinolyl]-1,1-methanedisulfonate]
percent of growth of human tumor cells (RXF-393): −50% | percent of growth of human tumor cells (HOP-62): −56% | percent of growth of human tumor cells (M14): −6% | % Growth (SK-MEL-2; SK-MEL-2, 10^−4 molar): 27% | % Growth (SK-MEL-2; SK-MEL-2, 10^−5 molar): 49% | % Growth (KM12; KM12, 10^−4 molar): −68% | % Growth (KM12; KM12, 10^−5 molar): −75% | % Growth (KM12; KM12, 10^−6 molar): 66% | percent of growth of human tumor cells (RPMI-8226): −18% | % Growth (NCI-H23): −72% | percent of growth of human tumor cells (HCT-116): 26% | percent of growth of human tumor cells (UO-31): 12% | % Growth (ACHN): −82% | percent of growth of human tumor cells (NCI-H460): 10% | percent of growth of human tumor cells (MCF7/ADR-RES): 20% | % Growth (SF-539; SF-539, 10^−4 molar): −73% | percent of growth of human tumor cells (K562): 19% | percent of growth of human tumor cells (AS49/ATCC): −36% | percent of growth of human tumor cells (HCT-15): −59% | percent of growth of human tumor cells (BT-549; BT-549 (Breast Cancer), 10^−4 molar): −52% | percent of growth of human tumor cells (UACC-62): −16% | percent of growth of human tumor cells (HL-60 (TB)): 17% | percent of growth of human tumor cells (OVCAR-3): 5% | percent of growth of human tumor cells (OVCAR-4): 19% | percent of growth of human tumor cells (HS 578T): −12% | Percentage of cancers showing negative growth cancers tested (human cancer cells; 10^−4 M conc.): 65% | Percentage of cancers showing negative growth cancers tested (human cancer cells; 10^−5 M conc.): 50% | Percentage of cancers showing negative growth cancers tested (human cancer cells; 10^−6 M conc.): 25% | percent of growth of human tumor cells (SR): 7% | percent of growth of human tumor cells (COLO205): 30% | % Growth (SN12C; 10^−4 molar): −67% | % Growth (SN12C; 10^−5 molar): −99% | % Growth (SN12C; 10^−6 molar): −4% | % Growth (SK-MEL-5; SK-MEL-5, 10^−4 molar): −53% | % Growth (SK-MEL-5; SK-MEL-5, 10^−5 molar): 28% | % Growth (DU-145; DV-145, 10^−4 molar): −68% | % Growth (DU-145; DV-145, 10^−5 molar): −96% | % Growth (DU-145; DV-145, 10^−6 molar): 38% | percent of growth of human tumor cells (SF-268): 7% | percent of growth of human tumor cells (U-251): −5% | percent of growth of human tumor cells (SK-MEL-28): −59% | percent of growth of human tumor cells (SNB-75): −33% | percent of growth of human tumor cells (SF-295): −57% | % Growth (MDA-MB-435): −73% | % Growth (OVCAR-5; OVCAR-5, 10^−4 molar): −49% | % Growth (OVCAR-5; OVCAR-5, 10^−5 molar): 51% | % Growth (OVCAR-5; OVCAR-5, 10^−6 molar): 39% | % Growth (OVCAR-5; OVCAR-5, 10^−7 molar): 46% | % Growth (OVCAR-5; OVCAR-5, 10^−8 molar): 52%

O=S1(=O)OCCOS(=O)(=O)C1(F)Br [NSC 665943, ethylene fluorobromomethanedisulfonate]
melting point: 82 to 90 °C | % Growth (BT-549; BT-549, 10^−4 molar): 12% | % Growth (BT-549; BT-549, 10^−5 molar): 28% | % Growth (BT-549; BT-549, 10^−6 molar): 52% | % Growth (BT-549; BT-549, 10^−7 molar): 42% | % Growth (BT-549; BT-549, 10^−8 molar): 44% | Percentage of cancers showing negative growth cancers tested (human cancer cells; 10^−4 M conc.): 10^−4 M conc. = 0/1 = 0%

O=S1(=O)OCCOS(=O)(=O)C1Cl [MWC 91-6, ethylene chloromethanedisulfonate]
melting point: 85 to 88 °C

O=S1(=O)OCCOS(=O)(=O)C1I [NSC 648309, ethylene iodomethanedisulfonate]
percent of growth of human tumor cells (NCI-H226; NCI-H226 (Non-Small Cell Lung), 10^−4 molar): 20% | melting point: 144 to 160 °C | percent of growth of human tumor cells (UACC-62): 17% | Percentage of cancers showing negative growth cancers tested (human cancer cells; 10^−4 M conc.): 10^−4 M conc. = 0/2 = 0%
